The text below walks through data of patent publication US20240327393A1 (SIRONAX LTD., priority 2021, published 2024).

Molecules are shown by their SMILES.

The test deals with HT-1080 (ATCC, CCL-121) cells. The test can be described thus: HT-1080 cell viability assay with ferroptosis inducer RSL3 (Cell Titer-Glo). The settings on record: Homo sapiens; HT-1080 cells treated with RSL3; 3-fold, 10-point dilution, 1.1 μM highest concentration; Table 2; read-out: EC50 (nM), ferroptosis inhibitory activity. The class given is cell-based. The gist of the method: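 EC50 was derived by sigmoidal dose-response regression of CellTiter-Glo luminescence viability, expressed relative to untreated wells. Compounds were tested in a ten-point, threefold dilution series (highest 1.1 μM) in the presence of the ferroptosis inducer RSL3. HT-1080 cells had been seeded at 6000 per well and grown overnight first.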
`CCNC(=O)c1cn(C)c2ccc(Nc3ccc(N4CCC(C)CC4)cc3)cc12` [Compound 365, N-ethyl-1-methyl-5-((4-(4-methylpiperidin-1-yl)phenyl)amino)-1H-indole-3-carboxamide]: the EC50 – broadly, the concentration at which the effect is half-maximal – was 0.1 to 100 nM. With `FC(F)(F)C1CCN(c2ccc(Nc3ccc4cn[nH]c4c3)cc2)CC1` [Compound 366, N-(4-(4-(trifluoromethyl)piperidin-1-yl)phenyl)-1H-indazol-6-amine], the EC50 was 0.1 to 100 nM. The result for `Cn1c(=O)n(CCN2CCCC2=O)c2ccc(Nc3ccc(N4CCC(C(F)(F)F)CC4)cc3)cc21` [Compound 367, 3-methyl-1-(2-(2-oxopyrrolidin-1-yl)ethyl)-5-((4-(4-(trifluoromethyl)piperidin-1-yl)phenyl)amino)-1,3-dihydro-2H-benzo[d]imidazol-2-one] reads 0.1 to 100 nM; that for `CC1CCCCN1c1ccc(Nc2ccc3c(c2)n(C)c(=O)n3C)cc1` (centres unmarked) [Compound 368, 1,3-dimethyl-5-((4-(2-methylpiperidin-1-yl)phenyl)amino)-1,3-dihydro-2H-benzo[d]imidazol-2-one], 0.1 to 100 nM. As for `COCCOCCN(C)c1ccc(Nc2ccc3c(c2)n(C)c(=O)n3C)cc1` [Compound 369, 5-((4-((2-(2-methoxyethoxy)ethyl)(methyl)amino)phenyl)amino)-1,3-dimethyl-1,3-dihydro-2H-benzo[d]imidazol-2-one], the figure is 100 to 1000 nM; as for `Cn1c(N)nc2cc(Nc3ccc(N4CCC(C(F)(F)F)CC4)cc3)ccc21` [Compound 370, 1-methyl-N^5-(4-(4-(trifluoromethyl)piperidin-1-yl)phenyl)-1H-benzo[d]imidazole-2,5-diamine], 0.1 to 100 nM. As for `Cc1cc(Nc2ccc3c(c2)n(C)c(=O)n3C)cnc1N1CCC(C(F)(F)F)CC1` [Compound 371, 1,3-dimethyl-5-((5-methyl-6-(4-(trifluoromethyl)piperidin-1-yl)pyridin-3-yl)amino)-1,3-dihydro-2H-benzo[d]imidazol-2-one], the figure is 0.1 to 100 nM; as for `COc1cc(Nc2ccc3c(c2)n(C)c(=O)n3C)cnc1N1CCC(C(F)(F)F)CC1` [Compound 372, 5-((5-methoxy-6-(4-(trifluoromethyl)piperidin-1-yl)pyridin-3-yl)amino)-1,3-dimethyl-1,3-dihydro-2H-benzo[d]imidazol-2-one], 0.1 to 100 nM.

With `Cc1nc(N2CCC(C(F)(F)F)CC2)ccc1Nc1ccc2c(c1)n(C)c(=O)n2C` [Compound 373, 1,3-dimethyl-5-((2-methyl-6-(4-(trifluoromethyl)piperidin-1-yl)pyridin-3-yl)amino)-1,3-dihydro-2H-benzo[d]imidazol-2-one], the EC50 fell in the range of 0.1 to 100 nM.

On to `Cn1c(=O)n(C)c2cc(Nc3ccc(N4CCC(C(F)(F)F)CC4)cc3C#N)ccc21` [Compound 374, 2-((1,3-dimethyl-2-oxo-2,3-dihydro-1H-benzo[d]imidazol-5-yl)amino)-5-(4-(trifluoromethyl)piperidin-1-yl)benzonitrile], for which the EC50 was 0.1 to 100 nM. As for `COc1cc(N2CCC(C(F)(F)F)CC2)ccc1Nc1ccc2c(c1)n(C)c(=O)n2C` [Compound 375, 5-((2-methoxy-4-(4-(trifluoromethyl)piperidin-1-yl)phenyl)amino)-1,3-dimethyl-1,3-dihydro-2H-benzo[d]imidazol-2-one], the EC50 lay within 0.1 to 100 nM.

As for `CC1CCN(c2ncc(Nc3ccc4c(c3)n(C)c(=O)n4C)cn2)CC1` [Compound 376, 1,3-dimethyl-5-((2-(4-methylpiperidin-1-yl)pyrimidin-5-yl)amino)-1,3-dihydro-2H-benzo[d]imidazol-2-one], the EC50 is 0.1 to 100 nM.

Consider `COc1nc(N2CCC(C(F)(F)F)CC2)ccc1Nc1ccc2c(c1)n(C)c(=O)n2C` [Compound 377, 5-((2-methoxy-6-(4-(trifluoromethyl)piperidin-1-yl)pyridin-3-yl)amino)-1,3-dimethyl-1,3-dihydro-2H-benzo[d]imidazol-2-one], for which the EC50 is 0.1 to 100 nM. As for `Cn1c(=O)n(C)c2cc(Nc3cnc(N4CCC(C(F)(F)F)CC4)c(F)c3)ccc21` [Compound 378, 5-((5-fluoro-6-(4-(trifluoromethyl)piperidin-1-yl)pyridin-3-yl)amino)-1,3-dimethyl-1,3-dihydro-2H-benzo[d]imidazol-2-one], the figure is 0.1 to 100 nM; as for `Cc1cc(N2CCC(C(F)(F)F)CC2)ncc1Nc1ccc2c(c1)n(C)c(=O)n2C` [Compound 379, 1,3-dimethyl-5-((4-methyl-6-(4-(trifluoromethyl)piperidin-1-yl)pyridin-3-yl)amino)-1,3-dihydro-2H-benzo[d]imidazol-2-one], 0.1 to 100 nM. The result for `COc1cc(N2CCC(C(F)(F)F)CC2)ncc1Nc1ccc2c(c1)n(C)c(=O)n2C` [Compound 380, 5-((4-methoxy-6-(4-(trifluoromethyl)piperidin-1-yl)pyridin-3-yl)amino)-1,3-dimethyl-1,3-dihydro-2H-benzo[d]imidazol-2-one] reads 0.1 to 100 nM; that for `Cn1c(=O)n(C)c2cc(Nc3ccccc3)ccc21` [Compound 382, 1,3-dimethyl-5-(phenylamino)-1,3-dihydro-2H-benzo[d]imidazol-2-one], 0.1 to 100 nM; that for `Cn1cc(C(N)=O)c2cc(Nc3ccc(N4CCC(C(F)(F)F)CC4)cc3)ccc21` [Compound 383, 1-methyl-5-((4-(4-(trifluoromethyl)piperidin-1-yl)phenyl)amino)-1H-indole-3-carboxamide], 0.1 to 100 nM. The result for `COC1(C(F)(F)F)CCN(c2ccc(Nc3ccc4c(c3)n(C)c(=O)n4C)cc2)CC1` [Compound 384, 5-((4-(4-methoxy-4-(trifluoromethyl)piperidin-1-yl)phenyl)amino)-1,3-dimethyl-1,3-dihydro-2H-benzo[d]imidazol-2-one] reads 0.1 to 100 nM; that for `Cn1c(=O)n(C)c2cc(Nc3ccc(N4CCC(CF)CC4)cc3)ccc21` [Compound 385, 5-((4-(4-(fluoromethyl)piperidin-1-yl)phenyl)amino)-1,3-dimethyl-1,3-dihydro-2H-benzo[d]imidazol-2-one], 0.1 to 100 nM; that for `COC1(C(F)(F)F)CCN(c2ccc(Nc3ccc4c(c3)oc(=O)n4C)cc2)CC1` [Compound 386, 6-((4-(4-methoxy-4-(trifluoromethyl)piperidin-1-yl)phenyl)amino)-3-methylbenzo[d]oxazol-2(3H)-one], 0.1 to 100 nM.

Take `Cn1c(=O)oc2cc(Nc3ccc(N4CCC(CF)CC4)cc3)ccc21` [Compound 387, 6-((4-(4-(fluoromethyl)piperidin-1-yl)phenyl)amino)-3-methylbenzo[d]oxazol-2(3H)-one]: the EC50 was in the range of 0.1 to 100 nM. In the case of `Cn1c(=O)oc2ccc(Nc3cnc(N4CCC(C(F)(F)F)CC4)c(F)c3)cc21` [Compound 388, 5-((5-fluoro-6-(4-(trifluoromethyl)piperidin-1-yl)pyridin-3-yl)amino)-3-methylbenzo[d]oxazol-2(3H)-one], the EC50 was 0.1 to 100 nM.

Regarding `Cn1c(=O)oc2ccc(Nc3ccc(N4CCCCC4)cc3)cc21` [Compound 389, 3-methyl-5-((4-(piperidin-1-yl)phenyl)amino)benzo[d]oxazol-2(3H)-one], the EC50 fell in the range of 0.1 to 100 nM. Consider `COC1(C(F)(F)F)CCN(c2ccc(Nc3ccc4oc(=O)n(C)c4c3)cc2)CC1` [Compound 390, 5-((4-(4-methoxy-4-(trifluoromethyl)piperidin-1-yl)phenyl)amino)-3-methylbenzo[d]oxazol-2(3H)-one], for which the EC50 was in the range of 0.1 to 100 nM.

Turning to `Cn1c(=O)oc2ccc(Nc3ccc(N4CCC(CF)CC4)cc3)cc21` [Compound 391, 5-((4-(4-(fluoromethyl)piperidin-1-yl)phenyl)amino)-3-methylbenzo[d]oxazol-2(3H)-one], the EC50 was 0.1 to 100 nM. As for `CCn1c(=O)oc2ccc(Nc3ccc(N4CCC(C(F)(F)F)CC4)cc3)cc21` [Compound 392, 3-ethyl-5-((4-(4-(trifluoromethyl)piperidin-1-yl)phenyl)amino) benzo[d]oxazol-2(3H)-one], the figure is 0.1 to 100 nM.

As for `COCCn1c(=O)oc2ccc(Nc3ccc(N4CCC(C(F)(F)F)CC4)cc3)cc21` [Compound 393], the EC50 lay within 0.1 to 100 nM.

Consider `Cn1c(=O)n(C)c2cc(Nc3ccc(C4CCCCC4)cc3)ccc21` [Compound 394, 5-((4-cyclohexylphenyl)amino)-1,3-dimethyl-1,3-dihydro-2H-benzo[d]imidazol-2-one], for which the EC50 was in the range of 0.1 to 100 nM. As for `COc1cc(Nc2ccc(N3CCC(C(F)(F)F)CC3)cc2)cc2c1ccn2C` [Compound 395, 4-methoxy-1-methyl-N-(4-(4-(trifluoromethyl)piperidin-1-yl)phenyl)-1H-indol-6-amine], the figure is 0.1 to 100 nM. The result for `Cn1c(NCC2CC2)cc2ccc(Nc3ccc(N4CCC(C(F)(F)F)CC4)cc3)cc21` [Compound 396, N2-(cyclopropylmethyl)-1-methyl-N6-(4-(4-(trifluoromethyl)piperidin-1-yl)phenyl)-1H-indole-2,6-diamine] reads 0.1 to 100 nM. As for `Cn1c(N(CC2CC2)CC2CC2)cc2ccc(Nc3ccc(N4CCC(C(F)(F)F)CC4)cc3)cc21` [Compound 397, N2,N2-bis(cyclopropylmethyl)-1-methyl-N6-(4-(4-(trifluoromethyl)piperidin-1-yl)phenyl)-1H-indole-2,6-diamine], the figure is 0.1 to 100 nM.

Consider `NC(=O)n1ncc2cc(Nc3ccc(N4CCC(C(F)(F)F)CC4)cc3)ccc21` [Compound 398, 5-((4-(4-(trifluoromethyl)piperidin-1-yl)phenyl)amino)-1H-indazole-1-carboxamide], for which the EC50 lay within 0.1 to 100 nM. The result for `CN(C)c1cn(C)c2cccc(Nc3ccc(N4CCC(C(F)(F)F)CC4)cc3)c12` [Compound 399, N3,N3,1-trimethyl-N4-(4-(4-(trifluoromethyl)piperidin-1-yl)phenyl)-1H-indole-3,4-diamine] reads 0.1 to 100 nM. The result for `COc1cc(Nc2ccc(N3CCC(C(F)(F)F)CC3)cc2)cc2c1oc(=O)n2C` [Compound 400, 7-methoxy-3-methyl-5-((4-(4-(trifluoromethyl)piperidin-1-yl)phenyl)amino)benzo[d]oxazol-2(3H)-one] reads 0.1 to 100 nM.
